Source: patent US20100137248A1, “BORON-CONTAINING COMPOUNDS, USES AND PREPARATION THEREOF” (DINOTEC INC., priority 2007, published 2010)

System: pain and/or inflammation in volunteers
Test: Tests on various subjects using Composition 2 (pain and/or inflammation)
Type: in vivo
Conditions: past medication of volunteers; testimony
Experimental: Composition 2 was tested on several subjects so as to verify its activity as anti-inflammatory agent and/or analgesic. As it can be seen from Table 1, test subjects having various inflammations or pain have been treated with Composition 2. In each case, a small amount of Composition 2, in the form of a cream, was applied to inflamed skin area by means of a short gentle rub.

**Q.** With `CC(=O)Oc1ccccc1C(=O)O` [Aspirin, acetylsalicylic acid] as the compound, how does the “gastric side effect reported by volunteers” value read?
**A.** Its value is “severe gastric burning sensation”.
